Experiment [1] has as its target E. coli UDP-N-acetylglucosamine enolpyruvoyl transferase, MurA (Escherichia coli, UniProt P0A749). As to the kind of experiment: biochemical. The following applies: (E) E. coli enzyme. Put shortly:
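Enzyme in 50 mM Tris/HCl pH 8.0 with 5 mM DTT and 20% glycerol was pre-incubated 10 min at 37° C with test compound in DMSO/water. Tris/BME and assay buffer then started the 1 hr, 37° C reaction, with a baseline 340 nm reading taken at start. Stop solution followed, and colour developed 30 minutes.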

Experiment [2] deals with E. coli Enopyruvyl-UPD-N-acetylglucosamine reductase, Mur B (Escherichia coli, UniProt P08373). As to the kind of experiment: biochemical. The conditions noted are these: (E) E. coli enzyme; for IC50: read-out: MurB IC50 (converted).
Chain of E. coli Enopyruvyl-UPD-N-acetylglucosamine reductase, Mur B (P08373 whole entry): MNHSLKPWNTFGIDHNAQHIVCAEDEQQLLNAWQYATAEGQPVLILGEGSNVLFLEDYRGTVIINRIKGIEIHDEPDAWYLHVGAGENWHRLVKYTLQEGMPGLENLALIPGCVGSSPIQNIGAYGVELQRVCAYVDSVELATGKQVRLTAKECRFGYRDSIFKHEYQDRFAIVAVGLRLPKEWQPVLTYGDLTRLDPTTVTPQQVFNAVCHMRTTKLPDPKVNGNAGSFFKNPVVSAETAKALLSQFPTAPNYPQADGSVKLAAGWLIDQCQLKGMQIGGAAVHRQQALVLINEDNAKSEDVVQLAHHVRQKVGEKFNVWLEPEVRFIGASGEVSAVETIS
Experiment [3] addresses E. coli Uridine-diphosphate-N-acetvimuramoyl: L-alanine lipase, MurC (Escherichia coli, UniProt P17952). As to the kind of experiment: Inhibitory activity against MurC (E. coli). The experiment is classed as biochemical. The conditions noted are these: (E) E. coli enzyme; for IC50: read-out: MurC IC50 (converted).
The target of experiment [4] is T1, S. aureus Uridine-diphosphate-N-acetylmuramoyl-L-alanine: D-glutamate liease, MurD (Staphylococcus aureus, UniProt Q2FZ92).
T1 sequence (Q2FZ92 1-449): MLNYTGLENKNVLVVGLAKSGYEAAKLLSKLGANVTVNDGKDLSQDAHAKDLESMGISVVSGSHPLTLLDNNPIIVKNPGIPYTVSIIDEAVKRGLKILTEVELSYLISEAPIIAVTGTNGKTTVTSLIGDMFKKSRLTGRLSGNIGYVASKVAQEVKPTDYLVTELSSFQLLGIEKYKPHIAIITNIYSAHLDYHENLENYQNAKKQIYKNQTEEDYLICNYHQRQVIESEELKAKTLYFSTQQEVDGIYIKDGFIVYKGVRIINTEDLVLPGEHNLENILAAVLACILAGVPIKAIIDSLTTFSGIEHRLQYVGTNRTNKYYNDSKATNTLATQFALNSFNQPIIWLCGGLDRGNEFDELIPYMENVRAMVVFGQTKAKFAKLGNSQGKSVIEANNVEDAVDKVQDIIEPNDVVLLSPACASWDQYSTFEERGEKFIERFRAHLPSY
Briefly: biochemical. The conditions noted are these: (S) S. aureus enzyme. Here is the method: S. aureus and E. coli Uridine-diphosphate-N-acetylmuramoyl-L-alanine: D-glutamate liease, MurD
Preparation of Enzyme Solution:
Preparation of Test Compound Solutions:
All test solutions are prepared in DMSO as 10 mg/mL, then diluted with 50 mM Tris/HCl (pH 8.5) to 100 μg/mL.
Preparation of Stop Solution:
In this evaluation, the inhibitory activity of a test compound against MurD, the enzyme which catalyzes the fourth step of bacterial cell wall biosynthesis is determined.

Experiment [5] has as its target E. coli Uridine-diphosphate-N-acetylmuramoyl-L-alanine: D-glutamate liease, MurD (Escherichia coli, UniProt P14900). As to the kind of experiment: biochemical. The following applies: (E) E. coli enzyme. Put shortly:
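Compound working solutions reach 100 μg/mL in 50 mM Tris/HCl (pH 8.5) after dilution of 10 mg/mL DMSO stocks; final level in the well not given here. Reaction buffer finals: 2 mM ATP, 50 mM MgCl2, 83 mM Tris/HCl, pH 8.0.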

A further experiment has as its system staphylococci. As to the kind of experiment: Minimum inhibitory concentration, microdilution broth method, staphylococci. The experiment is classed as cell-based. The conditions noted are these: Mueller-Hinton broth, 18-22 hours at 35° C.; for MIC: Staphylococcus aureus. The method, boiled down:
(§1)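 Following NCCLS standard M7-A5, MICs were determined by microdilution in Mueller-Hinton broth, with 5% horse blood added for streptococci.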
On the technique in general: In broth dilution the organism is exposed to a series of concentrations in liquid medium.

A further experiment has as its system enterococci. Briefly: Minimum inhibitory concentration, microdilution broth method, enterococci. The experiment is classed as cell-based. The conditions noted are these: Mueller-Hinton broth, 18-22 hours at 35° C.; for MIC: Enterococcus faecalis. Put shortly: as §1
In another experiment the test system is Streptococci. As to the kind of experiment: Minimum inhibitory concentration, microdilution broth method, streptococci. The experiment is classed as cell-based. The following applies: Mueller-Hinton broth with 5% horse blood, 18-22 hours at 35° C.; for MIC: S. pneumo GC 1894. The method, boiled down:
as §1

[6] abbreviates: S. aureus GC 1131, read-out: MIC S. aureus GC 1131.
Setting [7] is: S. aureus GC 4543, read-out: MIC S. aureus GC 4543.
Where [8] appears, read: E. faecalis GC 2242, read-out: MIC E. faecalis GC 2242.
Where [9] appears, read: E. faecalis GC 4555, read-out: MIC E. faecalis GC 4555.

Values after ≈ are worked out from the molar mass of the structure shown. Like-named read-outs stand apart in the source and are kept apart here.

Chain of E. coli UDP-N-acetylglucosamine enolpyruvoyl transferase, MurA (P0A749 whole entry): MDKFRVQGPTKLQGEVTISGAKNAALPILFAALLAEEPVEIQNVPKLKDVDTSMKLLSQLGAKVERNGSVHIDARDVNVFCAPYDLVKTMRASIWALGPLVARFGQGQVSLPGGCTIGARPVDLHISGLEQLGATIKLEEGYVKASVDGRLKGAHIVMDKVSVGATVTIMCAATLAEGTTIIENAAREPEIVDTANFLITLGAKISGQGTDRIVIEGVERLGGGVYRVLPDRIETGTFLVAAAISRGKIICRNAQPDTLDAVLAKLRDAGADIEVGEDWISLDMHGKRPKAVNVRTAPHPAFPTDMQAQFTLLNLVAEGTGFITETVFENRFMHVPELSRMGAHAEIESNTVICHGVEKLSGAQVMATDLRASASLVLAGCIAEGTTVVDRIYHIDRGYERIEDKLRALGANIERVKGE
Chain of E. coli Uridine-diphosphate-N-acetylmuramoyl-L-alanine: D-glutamate liease, MurD (P14900 whole entry): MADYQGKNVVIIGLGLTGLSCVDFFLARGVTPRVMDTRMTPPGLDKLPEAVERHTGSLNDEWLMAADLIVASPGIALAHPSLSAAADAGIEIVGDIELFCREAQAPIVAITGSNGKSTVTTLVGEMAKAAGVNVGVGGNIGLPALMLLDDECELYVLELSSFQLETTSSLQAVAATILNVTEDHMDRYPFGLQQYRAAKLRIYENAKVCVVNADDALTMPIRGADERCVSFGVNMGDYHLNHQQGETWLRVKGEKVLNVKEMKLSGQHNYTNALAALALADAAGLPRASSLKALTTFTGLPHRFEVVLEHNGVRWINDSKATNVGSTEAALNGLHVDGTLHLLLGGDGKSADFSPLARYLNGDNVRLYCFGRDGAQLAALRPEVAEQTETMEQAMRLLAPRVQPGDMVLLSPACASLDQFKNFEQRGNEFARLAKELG
Chain of E. coli Uridine-diphosphate-N-acetvimuramoyl: L-alanine lipase, MurC (P17952 whole entry): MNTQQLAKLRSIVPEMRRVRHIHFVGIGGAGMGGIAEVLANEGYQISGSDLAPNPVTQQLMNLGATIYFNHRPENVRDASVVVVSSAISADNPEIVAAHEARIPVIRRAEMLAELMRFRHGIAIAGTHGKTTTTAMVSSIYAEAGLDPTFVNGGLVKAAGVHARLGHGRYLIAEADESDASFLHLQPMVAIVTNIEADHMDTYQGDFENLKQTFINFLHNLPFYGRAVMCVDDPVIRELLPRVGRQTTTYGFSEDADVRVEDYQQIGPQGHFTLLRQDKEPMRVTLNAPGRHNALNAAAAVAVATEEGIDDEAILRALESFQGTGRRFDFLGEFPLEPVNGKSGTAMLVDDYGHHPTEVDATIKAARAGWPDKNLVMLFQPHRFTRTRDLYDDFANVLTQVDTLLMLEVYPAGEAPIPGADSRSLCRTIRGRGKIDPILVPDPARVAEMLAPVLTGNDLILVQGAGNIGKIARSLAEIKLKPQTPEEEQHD

As usually defined, the IC50 is the concentration that gives 50% inhibition. As a reminder, the MIC is the least concentration at which growth counts as inhibited. `O=C1O/C(=C\c2ccc(-c3ccccc3F)cc2)C(O)=C1c1ccccc1F` [Example 58]: the IC50 in experiment [1] was above 66.4 µM; in experiment [2], above 66.4 µM; in experiment [3], 37.2 µM; in experiment [4] it was above 66.4 µM; in experiment [5], above 66.4 µM. Further, the MIC with staphylococci (setting [6]) was 8 mg/L (≈ 21.3 µM); with staphylococci (setting [7]), 16 mg/L (≈ 42.5 µM); in the experiment with enterococci (setting [8]), 16 mg/L (≈ 42.5 µM); with enterococci (setting [9]), above 128 mg/L; in the experiment on Streptococci, below 0.125 mg/L.

As to `N#Cc1cccc(-c2ccc(/C=C3\OC(=O)C(c4ccccc4C#N)=C3O)cc2)c1` [Example 59], the IC50 in experiment [1] is 43.5 µM; in experiment [2] it was 15.4 µM; in experiment [3], 15.4 µM; in experiment [4], 12.8 µM; in experiment [5], 12.8 µM. Further, the MIC in the experiment on staphylococci (setting [6]) is above 128 mg/L; with staphylococci (setting [7]), above 128 mg/L; with enterococci (setting [8]) it was 8 mg/L (≈ 20.5 µM); in the experiment on enterococci (setting [9]) it was 8 mg/L (≈ 20.5 µM); against Streptococci it was 32 mg/L (≈ 82 µM).

As for `Cc1ccccc1C1=C(O)/C(=C/c2ccc(-c3ccccc3C)cc2)OC1=O` [Example 60], the IC50 is above 67.9 µM in experiment [1]; above 67.9 µM in experiment [2]; 38 µM in experiment [3]; 59.7 µM in experiment [4]; above 67.9 µM in experiment [5]. Also, the minimum inhibitory concentration (MIC) with staphylococci (setting [6]) was 16 mg/L (≈ 43.4 µM); in the experiment with staphylococci (setting [7]), 16 mg/L (≈ 43.4 µM); in the experiment with enterococci (setting [8]), 8 mg/L (≈ 21.7 µM); in the experiment on enterococci (setting [9]), 32 mg/L (≈ 86.9 µM); against Streptococci it was 8 mg/L (≈ 21.7 µM).

Turning to `O=C1O/C(=C\c2ccc(-c3ccccc3C(F)(F)F)cc2)C(O)=C1c1ccccc1C(F)(F)F` [Example 61], the IC50 is above 52.5 µM in experiment [1]; above 52.5 µM in experiment [2]; 29.4 µM in experiment [3]; 39.9 µM in experiment [4]; above 52.5 µM in experiment [5]. Also, the MIC was found to be 16 mg/L (≈ 33.6 µM) in the experiment on staphylococci (setting [6]); 16 mg/L (≈ 33.6 µM) in the experiment on staphylococci (setting [7]); 16 mg/L (≈ 33.6 µM) in the experiment on enterococci (setting [8]); 32 mg/L (≈ 67.2 µM) in the experiment on enterococci (setting [9]); 8 mg/L (≈ 16.8 µM) against Streptococci.

Regarding `N#Cc1ccc(C2=C(O)/C(=C/c3ccc(-c4ccc(C#N)cc4)cc3)OC2=O)cc1` [R=H, R1=4-CN—C6H4, R2=4-(4′-CN-biphenyl)], the “MurA IC50” value in experiment [1] was 7 (E) μg/mL. In addition, the “MurB IC50” value in experiment [2] was 15 (E) μg/mL. Moreover, in experiment [3], the “MurC IC50” value is 5 (E) μg/mL. For the same molecule, the “MurD IC50” value is above 25 mg/L in experiment [4] and 5 mg/L in experiment [5]. Moreover, the “MIC S. aureus GC 1131” value in the experiment with staphylococci (S. aureus GC 1131) was above 128 mg/L. The “MIC S. aureus GC 4543” value against staphylococci (S. aureus GC 4543) is above 128 mg/L. Moreover, the “MIC E. faecalis GC 2242” value against enterococci (E. faecalis GC 2242) was determined as 32 mg/L (≈ 82 µM). Further, the “MIC E. faecalis GC 4555” value in the experiment with enterococci (E. faecalis GC 4555) was determined as 64 mg/L (≈ 164 µM). In addition, the “MIC S. pneumo GC 1894” value against Streptococci worked out at 64 mg/L (≈ 164 µM).

Values taken from patent US7495027B2, “3-aryl-4-hydroxyfuranone compounds and the human and animal health use thereof” (Wyeth, priority 2003, dated 2009).
